Measurements published in PubChem BioAssay AID2060508 (Molecular Pharmacology Branch, DTP, NCI, 2025).

System: 454973-116-R2-J3-PDC spheroids, viability, % test/control
Test: Anticancer human tumor 454973-116-R2-J3-PDC patient-derived pancreatic carcinoma cell line growth inhibition [GQUAD]
Conditions: spheroids with HUVEC and MSC; for IC50: curve of first compound; for viability, T/C: stronger effect = lower value
How it was run: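 Tumor cells were grown as complex spheroids with HUVEC endothelial cells and mesenchymal stem cells as stroma. G-quadruplex stabilizers were combined with targeted agents over half-log dilutions from near the clinical Cmax, or from 10 microM.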

[1] = second compound 0.0316 µM, first compound 0.0316 µM
[2] = second compound 0.0316 µM, first compound 0.1 µM
[3] = second compound 0.0316 µM, first compound 0.316 µM
[4] = second compound 0.0316 µM, first compound 1 µM
[5] = second compound 0.0316 µM, first compound 3.16 µM
[6] = second compound 0.0316 µM, first compound 10 µM
[7] = second compound 0.1 µM, first compound 0.0316 µM
[8] = second compound 0.1 µM, first compound 0.1 µM
[9] = second compound 0.1 µM, first compound 0.316 µM
[10] = second compound 0.1 µM, first compound 1 µM
[11] = second compound 0.1 µM, first compound 3.16 µM
[12] = second compound 0.1 µM, first compound 10 µM
[13] = second compound 0.316 µM, first compound 0.0316 µM
[14] = second compound 0.316 µM, first compound 0.1 µM
[15] = second compound 0.316 µM, first compound 0.316 µM
[16] = second compound 0.316 µM, first compound 1 µM
[17] = second compound 0.316 µM, first compound 3.16 µM
[18] = second compound 0.316 µM, first compound 10 µM
[19] = second compound 1 µM, first compound 0.0316 µM
[20] = second compound 1 µM, first compound 0.1 µM
[21] = second compound 1 µM, first compound 0.316 µM
[22] = second compound 1 µM, first compound 1 µM
[23] = second compound 1 µM, first compound 3.16 µM
[24] = second compound 1 µM, first compound 10 µM
[25] = second compound 3.16 µM, first compound 0.0316 µM
[26] = second compound 3.16 µM, first compound 0.1 µM
[27] = second compound 3.16 µM, first compound 0.316 µM
[28] = second compound 3.16 µM, first compound 1 µM
[29] = second compound 3.16 µM, first compound 3.16 µM
[30] = second compound 3.16 µM, first compound 10 µM
[31] = second compound 10 µM, first compound 0.0316 µM
[32] = second compound 10 µM, first compound 0.1 µM
[33] = second compound 10 µM, first compound 0.316 µM
[34] = second compound 10 µM, first compound 1 µM
[35] = second compound 10 µM, first compound 3.16 µM
[36] = second compound 10 µM, first compound 10 µM
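Note: spheroids exposed to compounds for seven days.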
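Throughout, for viability, T/C: 100% = DMSO vehicle control viability.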

CC1COCCN1c1cc(C2(O)CC3CCC(C2)O3)c2cnn(-c3ccn[nH]3)c2n1 (centres undefined) + Cc1cnc(CNC(=O)c2c(=O)c3ccc(N4CCCN(C)CC4)nc3n3c2sc2ccccc23)cn1
IC50 (second compound 0.0316 µM): 31.8 nM
IC50 (second compound 0.1 µM): < 31.6 nM
IC50 (second compound 0.316 µM): < 31.6 nM
IC50 (second compound 1 µM): < 31.6 nM
IC50 (second compound 3.16 µM): < 31.6 nM
IC50 (second compound 10 µM): < 31.6 nM
viability, T/C [1]: 50.7%
viability, T/C [2]: 27.5%
viability, T/C [3]: 19.5%
viability, T/C [4]: 20.4%
viability, T/C [5]: 18.7%
viability, T/C [6]: 9.73%
viability, T/C [7]: 35%
viability, T/C [8]: 22.3%
viability, T/C [9]: 19.1%
viability, T/C [10]: 19%
viability, T/C [11]: 17.7%
viability, T/C [12]: 12.7%
viability, T/C [13]: 29.6%
viability, T/C [14]: 25.4%
viability, T/C [15]: 24.9%
viability, T/C [16]: 22%
viability, T/C [17]: 18.3%
viability, T/C [18]: 10.8%
viability, T/C [19]: 38.9%
viability, T/C [20]: 29.1%
viability, T/C [21]: 27.5%
viability, T/C [22]: 23.8%
viability, T/C [23]: 20%
viability, T/C [24]: 11.7%
viability, T/C [25]: 37.9%
viability, T/C [26]: 32.3%
viability, T/C [27]: 31.6%
viability, T/C [28]: 23.4%
viability, T/C [29]: 18.2%
viability, T/C [30]: 7.65%
viability, T/C [31]: 0.12%
viability, T/C [32]: 0.16%
viability, T/C [33]: 0.21%
viability, T/C [34]: 0.15%
viability, T/C [35]: 0.23%
viability, T/C [36]: 0.19%

O=c1[nH]cc(F)c(=O)[nH]1 + Cc1cnc(CNC(=O)c2c(=O)c3ccc(N4CCCN(C)CC4)nc3n3c2sc2ccccc23)cn1
IC50 (second compound 0.0316 µM): 1640 nM
IC50 (second compound 0.1 µM): 2200 nM
IC50 (second compound 0.316 µM): > 10000 nM
IC50 (second compound 1 µM): > 10000 nM
IC50 (second compound 3.16 µM): > 10000 nM
IC50 (second compound 10 µM): < 31.6 nM
viability, T/C [1]: 103%
viability, T/C [2]: 92.6%
viability, T/C [3]: 98.9%
viability, T/C [4]: 59.6%
viability, T/C [5]: 33.9%
viability, T/C [6]: 40.7%
viability, T/C [7]: 89.7%
viability, T/C [8]: 90.1%
viability, T/C [9]: 78.6%
viability, T/C [10]: 66.3%
viability, T/C [11]: 37.9%
viability, T/C [12]: 44.8%
viability, T/C [13]: 73.8%
viability, T/C [14]: 84.2%
viability, T/C [15]: 78.1%
viability, T/C [16]: 60.2%
viability, T/C [17]: 46.5%
viability, T/C [18]: 53.8%
viability, T/C [19]: 66.8%
viability, T/C [20]: 67.2%
viability, T/C [21]: 79.4%
viability, T/C [22]: 60.7%
viability, T/C [23]: 50.1%
viability, T/C [24]: 52.3%
viability, T/C [25]: 62.1%
viability, T/C [26]: 64.4%
viability, T/C [27]: 64.2%
viability, T/C [28]: 57.3%
viability, T/C [29]: 59.3%
viability, T/C [30]: 53.9%
viability, T/C [31]: 0.72%
viability, T/C [32]: 17.2%
viability, T/C [33]: 52.7%
viability, T/C [34]: 48%
viability, T/C [35]: 18.3%
viability, T/C [36]: 0.22%
